{"source": "ChEMBL document CHEMBL5465560", "about": "“Selectivity Literature for EUbOPEN Chemogenomic Library” (2024)", "key": {"[1]": {"target": "T1, Histone-arginine methyltransferase CARM1 (Homo sapiens) (UniProt Q86X55)", "T1 sequence (whole entry)": "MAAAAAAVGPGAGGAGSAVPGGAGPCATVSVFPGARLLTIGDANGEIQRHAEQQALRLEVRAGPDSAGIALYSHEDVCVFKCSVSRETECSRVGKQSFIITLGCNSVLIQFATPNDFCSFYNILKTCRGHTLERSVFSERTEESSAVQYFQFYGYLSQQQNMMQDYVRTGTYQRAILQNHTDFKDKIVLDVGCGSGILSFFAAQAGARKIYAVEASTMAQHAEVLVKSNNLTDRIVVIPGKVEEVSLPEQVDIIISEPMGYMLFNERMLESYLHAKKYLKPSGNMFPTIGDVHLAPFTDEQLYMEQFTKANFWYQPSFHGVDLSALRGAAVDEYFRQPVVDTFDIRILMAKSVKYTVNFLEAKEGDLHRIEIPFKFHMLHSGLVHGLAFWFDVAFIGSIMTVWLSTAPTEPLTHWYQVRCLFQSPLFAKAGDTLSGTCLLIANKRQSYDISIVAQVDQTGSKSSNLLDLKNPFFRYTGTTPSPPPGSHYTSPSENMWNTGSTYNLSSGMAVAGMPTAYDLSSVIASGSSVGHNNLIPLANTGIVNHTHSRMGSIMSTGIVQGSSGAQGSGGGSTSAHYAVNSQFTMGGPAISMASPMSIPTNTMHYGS", "experiment": "Selectivity interaction (Methyltransferase screen (Scintillation proximity assays)) EUB0000255b CARM1"}, "[2]": {"target": "T2, Dual specificity mitogen-activated protein kinase kinase 4 (Homo sapiens) (UniProt P45985)", "T2 sequence (whole entry)": "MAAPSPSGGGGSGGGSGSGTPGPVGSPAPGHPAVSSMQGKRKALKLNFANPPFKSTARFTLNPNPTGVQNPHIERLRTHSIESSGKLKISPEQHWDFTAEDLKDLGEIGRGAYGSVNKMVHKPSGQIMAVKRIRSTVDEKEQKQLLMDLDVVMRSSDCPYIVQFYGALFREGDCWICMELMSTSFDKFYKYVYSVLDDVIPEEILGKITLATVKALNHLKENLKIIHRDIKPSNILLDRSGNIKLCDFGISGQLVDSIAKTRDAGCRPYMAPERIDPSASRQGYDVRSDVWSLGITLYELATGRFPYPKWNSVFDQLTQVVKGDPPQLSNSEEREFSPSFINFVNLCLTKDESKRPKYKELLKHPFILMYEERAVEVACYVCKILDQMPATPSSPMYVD", "experiment": "Selectivity interaction (KinomeScan (DiscoverX)) EUB0000655a MAP2K4", "settings": "at 10 µM"}, "[3]": {"target": "Serine/threonine-protein kinase 38-like (Homo sapiens) (UniProt Q9Y2H1)", "sequence (Q9Y2H1 2-464 limits assumed)": "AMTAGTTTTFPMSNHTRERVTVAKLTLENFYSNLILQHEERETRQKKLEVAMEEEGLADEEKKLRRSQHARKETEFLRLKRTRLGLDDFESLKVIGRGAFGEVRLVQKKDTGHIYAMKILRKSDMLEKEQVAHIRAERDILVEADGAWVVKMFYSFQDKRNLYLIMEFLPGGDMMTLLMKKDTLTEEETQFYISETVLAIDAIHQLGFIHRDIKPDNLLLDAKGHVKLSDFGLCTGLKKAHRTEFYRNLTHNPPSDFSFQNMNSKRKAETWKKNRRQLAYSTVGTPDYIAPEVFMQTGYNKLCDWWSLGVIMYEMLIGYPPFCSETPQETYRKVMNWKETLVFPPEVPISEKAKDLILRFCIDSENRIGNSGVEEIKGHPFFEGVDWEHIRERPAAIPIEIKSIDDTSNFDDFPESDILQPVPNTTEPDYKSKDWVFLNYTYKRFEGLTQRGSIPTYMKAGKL", "experiment": "Selectivity interaction (KinomeScan (DiscoverX)) EUB0001049a STK38L", "settings": "at 1 µM"}, "[4]": {"target": "T3, Dual specificity mitogen-activated protein kinase kinase 3 (Homo sapiens) (UniProt P46734)", "T3 sequence (whole entry)": "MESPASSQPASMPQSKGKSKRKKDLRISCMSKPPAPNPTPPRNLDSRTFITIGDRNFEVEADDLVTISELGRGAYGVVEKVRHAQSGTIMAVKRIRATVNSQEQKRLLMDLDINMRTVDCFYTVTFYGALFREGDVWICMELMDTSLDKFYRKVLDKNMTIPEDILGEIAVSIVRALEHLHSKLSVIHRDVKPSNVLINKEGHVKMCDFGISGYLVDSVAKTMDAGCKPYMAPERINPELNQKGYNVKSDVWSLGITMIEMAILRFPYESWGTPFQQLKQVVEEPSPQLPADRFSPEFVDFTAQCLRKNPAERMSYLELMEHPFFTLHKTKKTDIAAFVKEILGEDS", "experiment": "Selectivity interaction (KinomeScan (DiscoverX)) EUB0000045b MAP2K3"}, "[5]": {"target": "T4, Serine/threonine-protein kinase tousled-like 1 (Homo sapiens) (UniProt Q9UKI8)", "T4 sequence (whole entry)": "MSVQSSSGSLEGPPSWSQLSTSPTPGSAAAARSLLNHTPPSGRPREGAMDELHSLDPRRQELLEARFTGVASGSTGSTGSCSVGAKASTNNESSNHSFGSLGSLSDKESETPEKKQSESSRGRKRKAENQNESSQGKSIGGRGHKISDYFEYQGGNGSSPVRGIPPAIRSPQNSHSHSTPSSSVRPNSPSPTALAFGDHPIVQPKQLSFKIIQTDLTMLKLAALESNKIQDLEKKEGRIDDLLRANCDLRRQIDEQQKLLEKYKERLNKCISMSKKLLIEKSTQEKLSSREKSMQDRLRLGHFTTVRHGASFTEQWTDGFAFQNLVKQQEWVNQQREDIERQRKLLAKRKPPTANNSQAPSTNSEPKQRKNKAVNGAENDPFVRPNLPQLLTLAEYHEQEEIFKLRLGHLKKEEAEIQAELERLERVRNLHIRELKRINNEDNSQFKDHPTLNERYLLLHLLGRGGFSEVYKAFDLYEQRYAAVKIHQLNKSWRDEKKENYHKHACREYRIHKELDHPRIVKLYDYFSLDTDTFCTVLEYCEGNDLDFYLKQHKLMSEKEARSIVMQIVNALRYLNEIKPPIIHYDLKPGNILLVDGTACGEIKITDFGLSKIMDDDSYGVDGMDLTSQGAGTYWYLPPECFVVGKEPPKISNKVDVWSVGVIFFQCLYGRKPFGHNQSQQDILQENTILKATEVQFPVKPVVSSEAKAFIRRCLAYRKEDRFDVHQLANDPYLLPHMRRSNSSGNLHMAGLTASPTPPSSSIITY", "experiment": "Selectivity interaction (Ambit KINOMEscan and KiNATiv profiling in Jurkat cells) EUB0000090b TLK1", "type": "cell-based", "settings": "at 1 µM"}}, "data": [{"smiles": "COCCN1CCC(c2cc(CN(C)C(=O)c3cccc(Oc4ccccc4)c3)ccn2)CC1", "values": [{"measurement": "% activity", "setting": "[1]; at 1 µM", "result": "< 1", "unit": "%"}, {"measurement": "% activity", "setting": "[1]; at 10 µM", "result": 23, "unit": "%"}]}, {"smiles": "CN(C)CCOc1ccc(-c2nc(-c3ccncc3)c(-c3ccc4c(c3)CC/C4=N\\O)[nH]2)cc1", "values": [{"measurement": "% of control", "setting": "[2]", "result": 100, "unit": "%"}]}, {"smiles": "COc1cc(Nc2nc(C)cc(-c3cnn4nc(OC)ccc34)n2)cc(C(F)(F)F)c1", "values": [{"measurement": "% of control", "setting": "[3]", "result": 100, "unit": "%"}]}, {"smiles": "C=CC(=O)Nc1cc(-n2c(=O)ccc3cnc4ccc(-c5ccc(NS(C)(=O)=O)cc5)cc4c32)ccc1C", "values": [{"measurement": "% of control", "setting": "[4]; at 1 µM", "result": 100, "unit": "%"}, {"measurement": "% of control", "setting": "[4]; at 10 µM", "result": 69, "unit": "%"}]}, {"smiles": "CN(C)C/C=C/C(=O)Nc1ccc(C(=O)N2CCCC(Nc3ncc(Cl)c(-c4c[nH]c5ccccc45)n3)C2)cc1", "note": "(configuration not stated)", "values": [{"measurement": "% of control", "setting": "[5]", "result": 92, "unit": "%"}]}]}
